Consider 27 compounds from ChEMBL document CHEMBL3301361, “Experimental in vitro DMPK and physicochemical data on a set of publicly disclosed compounds”.

The nature of one series: physchem. To be noted: octan-1-ol/water, pH 7.4.
The next series is described as follows: in vitro. As to conditions: human, plasma.

Usually logD stands for lipophilicity at a set pH, counting ionised and neutral species. What is called fraction unbound is the share of the substance not bound to proteins or other matrix. Turning to `NC(=O)c1ccc(Oc2cccc3cccnc23)c([N+](=O)[O-])c1`, the log distribution coefficient (logD) in “physchem” is 1.7. Moreover, in “in vitro”, the fraction unbound at 5 h was 0.0383.

With `NCCCCCc1c[nH]c2ccc(F)cc12`, the logD in the series “physchem” was found to be 0.6. In the series “in vitro”, this compound showed a fraction unbound at 5 h of 0.36.

As to `O=C(O)c1cn(Cc2ccccc2)c2ccccc12`, in “physchem”, the logD was 1.19. This compound gave a fraction unbound at 5 h in the series “in vitro” of 0.0191.

In “physchem”, `O=C1COc2ccc(CNC3CCN(CCN4C(=O)COc5ccc(Br)cc54)CC3)nc2N1` returned a pH-dependent lipophilicity (logD) of 1.42. Further, the unbound share (fraction unbound) at 5 h in “in vitro” was 0.0262.

`CN(C)S(=O)(=O)c1ccc2c(c1)N(CCN1CCC(NCc3ccc4c(n3)NC(=O)CO4)CC1)C(=O)CO2`: in the series “physchem”, the logD amounted to 0.15. The fraction unbound at 5 h in “in vitro” was 0.0928.

In “physchem”, `CS(=O)(=O)c1ccc2c(c1)N(CCN1CCC(NCc3ccc4c(n3)NC(=O)CO4)CC1)C(=O)CO2` gave a logD of -0.51. Besides, the fraction unbound at 5 h in the series “in vitro” was 0.145.

`CCS(=O)(=O)c1ccc2c(c1)N(CCN1CCC(NCc3ccc4c(n3)NC(=O)CO4)CC1)C(=O)CO2` yielded a logD in “physchem” of -0.11. Also, the fraction unbound at 5 h in “in vitro” is 0.304.

Take `O=C1COc2ccc(CNC3CCN(CCN4C(=O)COc5ccc(OC(F)(F)F)cc54)CC3)nc2N1`: the logD in the series “physchem” was found to be 1.82. In the series “in vitro”, this compound gave a fraction unbound at 5 h of 0.0209.

As to `O=C1COc2ccc(CNC3CCN(CCN4C(=O)COc5ccc(Cl)cc54)CC3)nc2N1`, the logD in “physchem” is 1.33. This compound also showed a fraction unbound at 5 h in the series “in vitro” of 0.072.

In “physchem”, `O=C1COc2ccc(CNC3CCN(CCN4C(=O)COc5ccc(F)cc54)CC3)nc2N1` came in with a logD of 0.9. The compound further showed a fraction unbound at 5 h in the series “in vitro” of 0.17.

In the case of `COc1ccc2c(c1)N(CCN1CCC(NCc3ccc4c(n3)NC(=O)CO4)CC1)C(=O)CO2`, in the series “physchem”, the logD is 0.87. Further, the unbound share (fraction unbound) at 5 h in the series “in vitro” was 0.112.

For the compound `O=C1COc2ccc(CNC3CCN(CCN4C(=O)COc5ccc(-c6ccco6)cc54)CC3)nc2N1`, the logD in the series “physchem” is 2.19. The compound further had a fraction unbound at 5 h in the series “in vitro” of 0.006.

Compound `Oc1ncc(NCc2ccccc2)c(O)n1` registered a log distribution coefficient (logD) in “physchem” of 0.82. In “in vitro”, this compound showed a free fraction (fraction unbound) at 5 h of 0.635.

Compound `CC(C)Nc1nc(NCc2ccccc2)c2sccc2n1` yielded a logD in “physchem” of 3.9. Further, the fraction unbound at 5 h in the series “in vitro” was 0.0029.

Turning to `COc1ccc2c(c1)N(CCN1CCC(NCc3cc4c(cn3)OCCO4)CC1)C(=O)CO2`, the logD in “physchem” was 1.24. This compound also had a fraction unbound at 5 h in the series “in vitro” of 0.176.

Compound `O=C1COc2ccccc2N1CCN1CCC(NCc2cc3c(cn2)OCCO3)CC1` displayed a logD in “physchem” of 1.04. In addition, the fraction unbound at 5 h in “in vitro” was 0.253.

As to `O=C(Nc1ccccc1F)NC1N=C(c2ccccc2)c2ccccc2NC1=O` (stereo not drawn), the pH-dependent lipophilicity (logD) in “physchem” was determined as 3.8. The compound further showed a fraction unbound at 5 h in the series “in vitro” of 0.0262.

As to `CC(=O)Nc1ccc2ccn(-c3cc(NC4CC4)n4ncc(C#N)c4n3)c2c1`, the logD in “physchem” came to 3.29. The same compound gave a fraction unbound at 5 h in “in vitro” of 0.0139.

In the series “physchem”, `Cc1ccc(C(=O)N(CCCN)[C@H](c2nc3cc(Cl)ccc3c(=O)n2Cc2ccccc2)C(C)C)cc1` registered a logD of 2.88. In addition, in “in vitro”, the fraction unbound at 5 h was 0.0081.

In turn, `CC(C)[C@H]1C(=O)N[C@H](CO)Cc2ccccc2N1C` showed a logD in the series “physchem” of 2.03. In addition, the fraction unbound at 5 h in the series “in vitro” was 0.371.

Regarding `O=C(Cc1ccc(OCc2ccccc2)cc1)NO`, the logD in the series “physchem” turned out to be 1.92. This compound had a fraction unbound at 5 h in “in vitro” of 0.0633.

As for `Nc1ccc(S(=O)(=O)Nc2ccnn2-c2ccccc2)cc1` [SULFAPHENAZOLE], the fraction unbound at 5 h in the series “in vitro” (PPB) is 0.0059.

Consider `CCN(CC)CCOc1ccc2c(c1)C(=O)c1cc(OCCN(CC)CC)ccc1-2` [TILORONE], for which, in the series “in vitro” (PPB), the fraction unbound at 5 h is 0.517.

In the case of `COc1cc(Cc2cnc(N)nc2N)cc(OC)c1OC` [TRIMETHOPRIM], the fraction unbound at 5 h in “in vitro” (PPB) was 0.339.

The compound `Cc1ccc(/C(=C\CN2CCCC2)c2ccccn2)cc1` [TRIPROLIDINE] had a fraction unbound at 5 h in the series “in vitro” (PPB) of 0.645.

As for `O=C(O)[C@@H](c1ccc(OCc2ccc3ccccc3n2)cc1)C1CCCC1` [VELIFLAPON], the fraction unbound at 5 h in the series “in vitro” (PPB) was 0.0015.

With `C[C@@H](c1ncncc1F)[C@](O)(Cn1cncn1)c1ccc(F)cc1F` [VORICONAZOLE], the fraction unbound at 5 h in the series “in vitro” is 0.535.
